Measured values taken from ChEMBL document CHEMBL1156163, “(18)F Labeled benzimidazole derivatives as potential radiotracer for positron emission tomography (PET) tumor imaging” (Bioorg Med Chem, 2010).
Blank lines part the entries; values can stand above or below the compound they belong to.

Key:
Kidney [1] = assay: Biodistribution in mouse S180 cells xenografted Kunming mouse kidney at 10 to 20 uCi, iv after 60 mins by gamma counting; format: ADME, organism-based, CCRF S-180; conditions: in vivo, 1 h
[2] = Biodistribution in mouse S180 cells xenografted Kunming mouse tumor at 10 to 20 uCi, iv after 5 mins by gamma counting; format: ADME, organism-based, Neoplasm, CCRF S-180; conditions: in vivo
Lung [3] = assay: Biodistribution in mouse S180 cells xenografted Kunming mouse lung at 10 to 20 uCi, iv after 60 mins by gamma counting; format: ADME, organism-based, CCRF S-180; conditions: in vivo, 1 h
Muscle tissue [4] = assay: Biodistribution in mouse S180 cells xenografted Kunming mouse muscle at 10 to 20 uCi, iv after 5 mins by gamma counting; format: ADME, organism-based, CCRF S-180; conditions: in vivo
[5] = Ratio of drug uptake in tumor to muscle of mouse S180 cells xenografted Kunming mouse at 10 to 20 uCi, iv after 60 mins by gamma counting; format: ADME, organism-based, CCRF S-180; conditions: in vivo, 1 h
[6] = Ratio of drug uptake in tumor to brain of mouse S180 cells xenografted Kunming mouse at 10 to 20 uCi, iv after 30 mins by gamma counting; format: ADME, organism-based, CCRF S-180; conditions: in vivo, 0.5 h
Kidney [7] = assay: Biodistribution in mouse S180 cells xenografted Kunming mouse kidney at 10 to 20 uCi, iv after 15 mins by gamma counting; format: ADME, organism-based, CCRF S-180; conditions: in vivo, 0.25 h
Heart [8] = assay: Biodistribution in mouse S180 cells xenografted Kunming mouse heart at 10 to 20 uCi, iv after 120 mins by gamma counting; format: ADME, organism-based, CCRF S-180; conditions: in vivo, 2 h
Blood [9] = assay: Biodistribution in mouse S180 cells xenografted Kunming mouse blood at 10 to 20 uCi, iv after 5 mins by gamma counting; format: ADME, organism-based, CCRF S-180; conditions: in vivo
[10] = Ratio of drug uptake in tumor to muscle of mouse S180 cells xenografted Kunming mouse at 10 to 20 uCi, iv after 30 mins by gamma counting; format: ADME, organism-based, CCRF S-180; conditions: in vivo, 0.5 h
Pancreas [11] = assay: Biodistribution in mouse S180 cells xenografted Kunming mouse pancreas at 10 to 20 uCi, iv after 120 mins by gamma counting; format: ADME, organism-based, CCRF S-180; conditions: in vivo, 2 h
Pancreas [12] = assay: Biodistribution in mouse S180 cells xenografted Kunming mouse pancreas at 10 to 20 uCi, iv after 5 mins by gamma counting; format: ADME, organism-based, CCRF S-180; conditions: in vivo
Kidney [13] = assay: Biodistribution in mouse S180 cells xenografted Kunming mouse kidney at 10 to 20 uCi, iv after 120 mins by gamma counting; format: ADME, organism-based, CCRF S-180; conditions: in vivo, 2 h
Liver [14] = assay: Biodistribution in mouse S180 cells xenografted Kunming mouse liver at 10 to 20 uCi, iv after 30 mins by gamma counting; format: ADME, organism-based, CCRF S-180; conditions: in vivo, 0.5 h
[15] = Ratio of drug uptake in tumor to blood of mouse S180 cells xenografted Kunming mouse at 10 to 20 uCi, iv after 120 mins by gamma counting; format: ADME, organism-based, CCRF S-180; conditions: tumour, 2 h
Brain [16] = assay: Biodistribution in mouse S180 cells xenografted Kunming mouse brain at 10 to 20 uCi, iv after 120 mins by gamma counting; format: ADME, organism-based, CCRF S-180; conditions: in vivo, 2 h
Brain [17] = assay: Biodistribution in mouse S180 cells xenografted Kunming mouse brain at 10 to 20 uCi, iv after 15 mins by gamma counting; format: ADME, organism-based, CCRF S-180; conditions: in vivo, 0.25 h
Liver [18] = assay: Biodistribution in mouse S180 cells xenografted Kunming mouse liver at 10 to 20 uCi, iv after 120 mins by gamma counting; format: ADME, organism-based, CCRF S-180; conditions: in vivo, 2 h
Lung [19] = assay: Biodistribution in mouse S180 cells xenografted Kunming mouse lung at 10 to 20 uCi, iv after 15 mins by gamma counting; format: ADME, organism-based, CCRF S-180; conditions: in vivo, 0.25 h
Heart [20] = assay: Biodistribution in mouse S180 cells xenografted Kunming mouse heart at 10 to 20 uCi, iv after 5 mins by gamma counting; format: ADME, organism-based, CCRF S-180; conditions: in vivo
Blood [21] = assay: Biodistribution in mouse S180 cells xenografted Kunming mouse blood at 10 to 20 uCi, iv after 120 mins by gamma counting; format: ADME, organism-based, CCRF S-180; conditions: in vivo, 2 h
Pancreas [22] = assay: Biodistribution in mouse S180 cells xenografted Kunming mouse pancreas at 10 to 20 uCi, iv after 15 mins by gamma counting; format: ADME, organism-based, CCRF S-180; conditions: in vivo, 0.25 h
[23] = Ratio of drug uptake in tumor to muscle of mouse S180 cells xenografted Kunming mouse at 10 to 20 uCi, iv after 120 mins by gamma counting; format: ADME, organism-based, CCRF S-180; conditions: in vivo, 2 h
Brain [24] = assay: Biodistribution in mouse S180 cells xenografted Kunming mouse brain at 10 to 20 uCi, iv after 60 mins by gamma counting; format: ADME, organism-based, CCRF S-180; conditions: in vivo, 1 h
Heart [25] = assay: Biodistribution in mouse S180 cells xenografted Kunming mouse heart at 10 to 20 uCi, iv after 15 mins by gamma counting; format: ADME, organism-based, CCRF S-180; conditions: in vivo, 0.25 h
[26] = Ratio of drug uptake in tumor to muscle of mouse S180 cells xenografted Kunming mouse at 10 to 20 uCi, iv after 15 mins by gamma counting; format: ADME, organism-based, CCRF S-180; conditions: in vivo, 0.25 h
Lung [27] = assay: Biodistribution in mouse S180 cells xenografted Kunming mouse lung at 10 to 20 uCi, iv after 30 mins by gamma counting; format: ADME, organism-based, CCRF S-180; conditions: in vivo, 0.5 h
Lung [28] = assay: Biodistribution in mouse S180 cells xenografted Kunming mouse lung at 10 to 20 uCi, iv after 120 mins by gamma counting; format: ADME, organism-based, CCRF S-180; conditions: in vivo, 2 h
[29] = Biodistribution in mouse S180 cells xenografted Kunming mouse tumor at 10 to 20 uCi, iv after 120 mins by gamma counting; format: ADME, organism-based, Neoplasm, CCRF S-180; conditions: in vivo, 2 h
Liver [30] = assay: Biodistribution in mouse S180 cells xenografted Kunming mouse liver at 10 to 20 uCi, iv after 5 mins by gamma counting; format: ADME, organism-based, CCRF S-180; conditions: in vivo
[31] = Ratio of drug uptake in tumor to brain of mouse S180 cells xenografted Kunming mouse at 10 to 20 uCi, iv after 15 mins by gamma counting; format: ADME, organism-based, CCRF S-180; conditions: in vivo, 0.25 h
[32] = Ratio of drug uptake in tumor to brain of mouse S180 cells xenografted Kunming mouse at 10 to 20 uCi, iv after 60 mins by gamma counting; format: ADME, organism-based, CCRF S-180; conditions: in vivo, 1 h
Pancreas [33] = assay: Biodistribution in mouse S180 cells xenografted Kunming mouse pancreas at 10 to 20 uCi, iv after 60 mins by gamma counting; format: ADME, organism-based, CCRF S-180; conditions: in vivo, 1 h
Blood [34] = assay: Biodistribution in mouse S180 cells xenografted Kunming mouse blood at 10 to 20 uCi, iv after 60 mins by gamma counting; format: ADME, organism-based, CCRF S-180; conditions: in vivo, 1 h
Pancreas [35] = assay: Biodistribution in mouse S180 cells xenografted Kunming mouse pancreas at 10 to 20 uCi, iv after 30 mins by gamma counting; format: ADME, organism-based, CCRF S-180; conditions: in vivo, 0.5 h
[36] = Biodistribution in mouse S180 cells xenografted Kunming mouse tumor at 10 to 20 uCi, iv after 60 mins by gamma counting; format: ADME, organism-based, Neoplasm, CCRF S-180; conditions: in vivo, 1 h
Lung [37] = assay: Biodistribution in mouse S180 cells xenografted Kunming mouse lung at 10 to 20 uCi, iv after 5 mins by gamma counting; format: ADME, organism-based, CCRF S-180; conditions: in vivo
[38] = Biodistribution in mouse S180 cells xenografted Kunming mouse tumor at 10 to 20 uCi, iv after 30 mins by gamma counting; format: ADME, organism-based, Neoplasm, CCRF S-180; conditions: in vivo, 0.5 h
Kidney [39] = assay: Biodistribution in mouse S180 cells xenografted Kunming mouse kidney at 10 to 20 uCi, iv after 5 mins by gamma counting; format: ADME, organism-based, CCRF S-180; conditions: in vivo
Liver [40] = assay: Biodistribution in mouse S180 cells xenografted Kunming mouse liver at 10 to 20 uCi, iv after 60 mins by gamma counting; format: ADME, organism-based, CCRF S-180; conditions: in vivo, 1 h
Kidney [41] = assay: Biodistribution in mouse S180 cells xenografted Kunming mouse kidney at 10 to 20 uCi, iv after 30 mins by gamma counting; format: ADME, organism-based, CCRF S-180; conditions: in vivo, 0.5 h
[42] = Ratio of drug uptake in tumor to brain of mouse S180 cells xenografted Kunming mouse at 10 to 20 uCi, iv after 120 mins by gamma counting; format: ADME, organism-based, CCRF S-180; conditions: in vivo, 2 h
Muscle tissue [43] = assay: Biodistribution in mouse S180 cells xenografted Kunming mouse muscle at 10 to 20 uCi, iv after 120 mins by gamma counting; format: ADME, organism-based, CCRF S-180; conditions: in vivo, 2 h

- Drug uptake (Kidney [1]): 3.75 % ID/g
- Drug uptake [2]: 2.08 % ID/g
- Drug uptake (Lung [3]): 4.7 % ID/g
- Drug uptake (Muscle tissue [4]): 2.88 % ID/g
- Ratio [5]: 1.23
- Ratio [6]: 2.54
- Drug uptake (Kidney [7]): 6.79 % ID/g
- Drug uptake (Heart [8]): 0.94 % ID/g
- Drug uptake (Blood [9]): 6.81 % ID/g
- Ratio [10]: 0.62
- Drug uptake (Pancreas [11]): 0.09 % ID/g
- Drug uptake (Pancreas [12]): 0.93 % ID/g
- Drug uptake (Kidney [13]): 1.29 % ID/g
- Drug uptake (Liver [14]): 4.23 % ID/g
- Ratio [15]: 1.92
- Drug uptake (Brain [16]): 0.73 % ID/g
- Drug uptake (Brain [17]): 1.03 % ID/g
- Drug uptake (Liver [18]): 1.22 % ID/g
- Drug uptake (Lung [19]): 9.82 % ID/g
- Drug uptake (Heart [20]): 5.89 % ID/g
- Drug uptake (Blood [21]): 1.12 % ID/g
- Drug uptake (Pancreas [22]): 0.22 % ID/g
- Ratio [23]: 1.02
- Drug uptake (Brain [24]): 0.94 % ID/g
- Drug uptake (Heart [25]): 3.41 % ID/g
- Ratio [26]: 0.75
- Drug uptake (Lung [27]): 8.57 % ID/g
- Drug uptake (Lung [28]): 1.55 % ID/g
- Drug uptake [29]: 2.15 % ID/g
- Drug uptake (Liver [30]): 7.67 % ID/g
- Ratio [31]: 2.43
- Ratio [32]: 2.92
- Drug uptake (Pancreas [33]): 0.03 % ID/g
- Drug uptake (Blood [34]): 2.51 % ID/g
- Drug uptake (Pancreas [35]): 0.11 % ID/g
- Drug uptake [36]: 2.75 % ID/g
- Drug uptake (Lung [37]): 16.8 % ID/g
- Drug uptake [38]: 3.28 % ID/g
- Drug uptake (Kidney [39]): 6.58 % ID/g
- Drug uptake (Liver [40]): 3.56 % ID/g
- Drug uptake (Kidney [41]): 2.38 % ID/g
- Ratio [42]: 2.95
- Drug uptake (Muscle tissue [43]): 2.1 % ID/g
Compound: N[C@@H](Cc1ccc(OCC[18F])cc1)C(=O)O [FLORETYROSINE F18]

- Drug uptake (Kidney [1]): 0.54 % ID/g
- Drug uptake [2]: 1.27 % ID/g
- Drug uptake (Lung [3]): 0.57 % ID/g
- Drug uptake (Muscle tissue [4]): 1.56 % ID/g
- Ratio [5]: 2.23
- Ratio [6]: 0.61
- Drug uptake (Kidney [7]): 1.04 % ID/g
- Drug uptake (Heart [8]): 6.27 % ID/g
- Drug uptake (Blood [9]): 1.09 % ID/g
- Ratio [10]: 1.75
- Drug uptake (Pancreas [11]): 0.78 % ID/g
- Drug uptake (Pancreas [12]): 1.31 % ID/g
- Drug uptake (Kidney [13]): 0.25 % ID/g
- Drug uptake (Liver [14]): 0.23 % ID/g
- Ratio [15]: 15.85
- Drug uptake (Brain [16]): 1.28 % ID/g
- Drug uptake (Brain [17]): 2.63 % ID/g
- Drug uptake (Liver [18]): 0.2 % ID/g
- Drug uptake (Lung [19]): 0.77 % ID/g
- Drug uptake (Heart [20]): 2.6 % ID/g
- Drug uptake (Blood [21]): 0.11 % ID/g
- Drug uptake (Pancreas [22]): 0.95 % ID/g
- Ratio [23]: 2.2
- Drug uptake (Brain [24]): 2.11 % ID/g
- Drug uptake (Heart [25]): 2.5 % ID/g
- Ratio [26]: 1.37
- Drug uptake (Lung [27]): 0.64 % ID/g
- Drug uptake (Lung [28]): 0.52 % ID/g
- Drug uptake [29]: 1.7 % ID/g
- Drug uptake (Liver [30]): 1.35 % ID/g
- Ratio [31]: 0.59
- Ratio [32]: 1.02
- Drug uptake (Pancreas [33]): 0.83 % ID/g
- Drug uptake (Blood [34]): 0.11 % ID/g
- Drug uptake (Pancreas [35]): 0.9 % ID/g
- Drug uptake [36]: 2.16 % ID/g
- Drug uptake (Lung [37]): 1.52 % ID/g
- Drug uptake [38]: 1.86 % ID/g
- Drug uptake (Kidney [39]): 2.16 % ID/g
- Drug uptake (Liver [40]): 0.22 % ID/g
- Drug uptake (Kidney [41]): 0.61 % ID/g
- Ratio [42]: 1.33
- Drug uptake (Muscle tissue [43]): 0.78 % ID/g
Compound: OC[C@H]1O[C@@H](O)[C@H]([18F])[C@@H](O)[C@@H]1O [FLUDEOXYGLUCOSE-F18]
